The structures appear in SMILES notation. Calls of active or inactive are those of the source. No cut-off for these calls is given here.

22 compounds from ChEMBL document CHEMBL1921797, “Synthesis and biological evaluation of arylated novobiocin analogs as Hsp90 inhibitors” (Bioorg Med Chem Lett, 2011) can be followed below.

One assay relates to SK-BR-3. As to the kind of experiment: Antiproliferative activity against human SKBR3 cells. The assay is classed as functional, cell-based.
The subject of assay [1] is MCF7. Kind of assay: Antiproliferative activity against human MCF7 cells. The assay is classed as functional, cell-based.
Assay [2] deals with Heat shock protein HSP 90-beta (Homo sapiens) (UniProt P08238). As to the kind of experiment: Inhibition of human C-terminal domain of Hsp90 in MCF7 cells assessed as Raf degradation at 0.1 to 100 uM by Western blotting. The class given is cell-based. For orientation: In western blotting, separated proteins are transferred to a membrane and probed.
For assay [3] the target is unchanged. As to the kind of experiment: Inhibition of human C-terminal domain of Hsp90 in MCF7 cells assessed as Her2 degradation at 0.1 to 100 uM by Western blotting. The assay is classed as cell-based.
The target is the same in assay [4]. Kind of assay: Induction of human Hsp90 activity in MCF7 cells at 0.1 to 100 uM by Western blotting. The class given is cell-based.
For assay [5] the target is unchanged. As to the kind of experiment: Inhibition of human C-terminal domain of Hsp90 in MCF7 cells assessed as Akt degradation at 0.1 to 100 uM by Western blotting. The class given is cell-based.
The subject of assay [6] is MCF7. As to the kind of experiment: Ratio of IC50 for human SKBR3 cells to IC50 for human MCF7 cells. The assay is classed as functional.

Heat shock protein HSP 90-beta (Homo sapiens), sequence (P08238 whole entry, the tested form may be a part): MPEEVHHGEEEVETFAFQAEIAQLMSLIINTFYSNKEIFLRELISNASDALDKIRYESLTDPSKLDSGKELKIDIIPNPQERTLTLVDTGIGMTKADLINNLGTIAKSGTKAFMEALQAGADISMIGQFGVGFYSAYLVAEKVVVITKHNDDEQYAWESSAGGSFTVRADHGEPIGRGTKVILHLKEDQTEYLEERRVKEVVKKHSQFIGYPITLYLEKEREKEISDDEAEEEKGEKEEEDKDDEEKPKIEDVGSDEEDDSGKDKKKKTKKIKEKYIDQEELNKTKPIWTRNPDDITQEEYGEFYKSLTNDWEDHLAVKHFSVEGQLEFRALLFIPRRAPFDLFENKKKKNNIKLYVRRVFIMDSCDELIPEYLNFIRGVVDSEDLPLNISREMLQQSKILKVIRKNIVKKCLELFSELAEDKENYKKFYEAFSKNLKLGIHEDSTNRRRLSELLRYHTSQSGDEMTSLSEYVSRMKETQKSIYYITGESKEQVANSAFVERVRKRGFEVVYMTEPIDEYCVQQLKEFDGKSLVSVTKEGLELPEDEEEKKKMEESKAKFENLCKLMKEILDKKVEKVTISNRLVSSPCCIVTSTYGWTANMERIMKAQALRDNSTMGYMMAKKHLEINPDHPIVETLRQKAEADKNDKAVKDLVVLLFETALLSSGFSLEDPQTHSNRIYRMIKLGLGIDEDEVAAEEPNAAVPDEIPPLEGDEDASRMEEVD

As a reminder, the IC50 is the midpoint of a concentration-inhibition curve. High values mean a need for much substance, low ones inhibition by little substance. Consider `COc1ccc(Cc2ccc3cc(NC(=O)c4ccc(O)c(CC=C(C)C)c4)c(=O)oc3c2C)cc1`, for which the IC50 in the assay with SK-BR-3 worked out at 11.1 µM; with MCF7 [1], 13.2 µM.

Regarding `CC(=O)Oc1ccc(C(=O)Nc2cc3ccc(Oc4ccc(C(C)(C)C)cc4)c(C)c3oc2=O)cc1CC=C(C)C`, the IC50 with SK-BR-3 amounted to 72.4 µM; in the assay on MCF7 [1] it was 75 µM.

Regarding `COc1cccc(Oc2ccc3cc(NC(=O)c4ccc(OC(C)=O)c(CC=C(C)C)c4)c(=O)oc3c2C)c1`, the IC50 amounted to 13.7 µM in the assay on SK-BR-3 and 15.7 µM with MCF7 [1].

In the case of `CC(C)=CCc1cc(C(=O)Nc2cc3ccc(Oc4ccc(C(C)(C)C)cc4)c(C)c3oc2=O)ccc1O`, the IC50 in the assay with SK-BR-3 amounted to 68.3 µM; in the assay on MCF7 [1], 20.6 µM.

In the case of `COc1cccc(Oc2ccc3cc(NC(=O)c4ccc(OC)c(-c5cccc(OC)c5)c4)c(=O)oc3c2C)c1`, the IC50 in the assay with SK-BR-3 and with MCF7 [1] was > 100 µM throughout.

For the compound `COCOc1ccc(Cc2ccc3cc(NC(=O)c4ccc(OC(C)=O)c(CC=C(C)C)c4)c(=O)oc3c2C)cc1OC`, the figures for the IC50 in the assay on SK-BR-3 and with MCF7 [1] were 14.2 µM and 14.9 µM, respectively.

For the compound `COc1cc(Cc2ccc3cc(NC(=O)c4ccc(O)c(CC=C(C)C)c4)c(=O)oc3c2C)ccc1O`, the half-inhibitory concentration (IC50) turned out to be 10.7 µM in the assay on SK-BR-3 and 14.6 µM in the assay on MCF7 [1].

As for `COc1ccc(Cc2ccc3cc(NC(=O)c4ccc(OC(C)=O)c(CC=C(C)C)c4)c(=O)oc3c2C)cc1`, the IC50 with SK-BR-3 was found to be 23.5 µM; with MCF7 [1] it was 11.5 µM. In addition, the inhibition entry in assay [2], in assay [3] and in assay [5] was “Active” each time. Moreover, the result in assay [4] was inactive.

Consider `COc1ccc(Oc2ccc3cc(NC(=O)c4ccc(OC)c(-c5cccc(OC)c5)c4)c(=O)oc3c2C)cc1`, for which the IC50 in the assay on SK-BR-3 and in the assay with MCF7 [1] was > 100 µM in each case.

For the compound `COc1ccc(Oc2ccc3cc(NC(=O)c4ccc(O)c(CC=C(C)C)c4)c(=O)oc3c2C)cc1`, the IC50 in the assay on SK-BR-3 turned out to be 42.7 µM; with MCF7 [1] it was 6.51 µM. Besides, the inhibition entry in assay [2], in assay [3] and in assay [5] was “Active” throughout. Moreover, the result in assay [4] was inactive.

Take `COc1cccc(Cc2ccc3cc(NC(=O)c4ccc(O)c(CC=C(C)C)c4)c(=O)oc3c2C)c1`: the half-inhibitory concentration (IC50) amounted to 14.8 µM in the assay on SK-BR-3 and 19.7 µM in the assay with MCF7 [1].

For the compound `COc1cccc(-c2cc(C(=O)Nc3cc4ccc(Oc5ccc(C(C)(C)C)cc5)c(C)c4oc3=O)ccc2OC)c1`, the IC50 with SK-BR-3 and in the assay on MCF7 [1] was > 100 µM each time.

For the compound `COc1cccc(Oc2ccc3cc(NC(=O)c4ccc(O)c(CC=C(C)C)c4)c(=O)oc3c2C)c1`, the IC50 came out at 33.1 µM with SK-BR-3 and 62.8 µM in the assay with MCF7 [1].

As for `COc1ccc(Nc2ccc3cc(NC(=O)c4ccc(OC(C)=O)c(CC=C(C)C)c4)c(=O)oc3c2C)cc1`, the IC50 in the assay on SK-BR-3 and in the assay on MCF7 [1] was > 100 µM throughout.

For `CC(C)=CCc1cc(C(=O)Nc2cc3ccc(Cc4ccc(O)cc4)c(C)c3oc2=O)ccc1O`, the half-inhibitory concentration (IC50) worked out at 21.5 µM in the assay on SK-BR-3 and 32.1 µM with MCF7 [1].

For `COc1ccc(Nc2ccc3cc(NC(=O)c4ccc(OC)c(-c5cccc(OC)c5)c4)c(=O)oc3c2C)cc1`, the IC50 with SK-BR-3 and in the assay on MCF7 [1] was > 100 µM throughout.

Regarding `COc1ccc(Cc2ccc3cc(NC(=O)c4ccc(OC)c(-c5cccc(OC)c5)c4)c(=O)oc3c2C)cc1`, the IC50 in the assay with SK-BR-3 and in the assay on MCF7 [1] was > 100 µM each time.

Consider `COc1ccc(Cc2ccc3cc(NC(=O)c4ccc(O)c(CC=C(C)C)c4)c(=O)oc3c2C)cc1OC`, for which the “Ratio IC50” value with MCF7 [6] was determined as 10. Further, the IC50 with SK-BR-3 is > 100 µM; with MCF7 [1], 13.9 µM.

With `COc1ccc(Nc2ccc3cc(NC(=O)c4ccc(O)c(CC=C(C)C)c4)c(=O)oc3c2C)cc1`, the IC50 in the assay on SK-BR-3 and with MCF7 [1] was > 100 µM each time.

As for `COc1ccc(Oc2ccc3cc(NC(=O)c4ccc(OC(C)=O)c(CC=C(C)C)c4)c(=O)oc3c2C)cc1`, the values for the IC50 in the assay with SK-BR-3 and in the assay with MCF7 [1] were 19.5 µM and 18.2 µM, respectively.

For `COc1cccc(-c2cc(C(=O)Nc3cc4ccc(Cc5ccccc5)c(C)c4oc3=O)ccc2OC)c1`, the IC50 turned out to be 4.09 µM with SK-BR-3 and 7.11 µM in the assay with MCF7 [1].

Regarding `COCOc1ccc(Cc2ccc3cc(NC(=O)c4ccc(OC(C)=O)c(CC=C(C)C)c4)c(=O)oc3c2C)cc1`, the IC50 in the assay with SK-BR-3 came out at 13.5 µM; in the assay with MCF7 [1] it was 22.7 µM.
